From PubChem BioAssay (NCI)
“And” between values parts separate entries of the source, which are not always exact repeats. Equal entries are not always repeated.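 Growth conditions: 96-well plates. Treatment: test compound, 48 hours, 5 concentrations. Analysis: linear interpolation between bracketing concentrations; unreached endpoints set to highest concentration. GI50 is the concentration that inhibits growth by half. TGI denotes the concentration required for complete inhibition of growth.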

Columns and labels:
Test in all cases: NCI tumour cell line growth inhibition, 48 h
KM20L2 colon = tested on: KM20L2 colon
DMS 273 small cell lung = tested on: DMS 273 small cell lung
RXF-631 renal = tested on: RXF-631 renal
DLD-1 colon = tested on: DLD-1 colon
XF 498 CNS = tested on: XF 498 CNS
LXFL 529 NSCLC = tested on: LXFL 529 NSCLC
MDA-MB-231 breast = tested on: MDA-MB-231 breast
SN12K1 renal = tested on: SN12K1 renal
MDA-MB-435 = tested on: MDA-MB-435
P388/ADR leukemia = tested on: P388/ADR leukemia
MDA-N = tested on: MDA-N

SMILES	TGI (KM20L2 colon)	TGI (DMS 273 small cell lung) [µM]	TGI (RXF-631 renal)	TGI (DLD-1 colon) [µM]	TGI (XF 498 CNS)	TGI (LXFL 529 NSCLC) [µM]	GI50 (KM20L2 colon) [µM]	GI50 (DMS 273 small cell lung)	GI50 (RXF-631 renal)	GI50 (DLD-1 colon) [µM]	GI50 (XF 498 CNS) [µM]	GI50 (LXFL 529 NSCLC) [µM]	TGI (MDA-MB-231 breast)	TGI (SN12K1 renal) [µM]	TGI (MDA-MB-435)	TGI (P388/ADR leukemia) [µM]	TGI (MDA-N)	GI50 (MDA-MB-231 breast) [µM]	GI50 (MDA-MB-435) [µM]	GI50 (MDA-N) [µM]
COc1cc(OC)cc(N2CCC(c3c(N)nc(N)nc3Cl)CC2)c1	> 100 µM	> 100	> 100 µM	> 100	> 100 µM	> 100														
C=CCN1C(=O)CS/C1=N\NC(=O)c1c(C)nc2sccn12	> 100 µM	> 100	> 100 µM	> 100	> 100 µM	> 100														
CS(=O)(=O)C1S(=O)(=O)OCCOS1(=O)=O	> 100 µM	> 100	> 100 µM	> 100	> 100 µM	> 100														
OCC(O)CC[CH2][Sn]([c]1ccccc1)([c]1ccccc1)[c]1ccccc1 (configuration not stated)	34.7 µM	29.6	28.7 µM	32	35.9 µM	24.9	19.4	14.3 µM	13.6 µM	16.5	19.5	12.3								
O=C(Cn1ccnc1[N+](=O)[O-])N(CCO)CCO	> 1250 µM	> 1250		> 1250	> 58 µM								> 250 µM	> 1250	> 250 µM	> 1250	> 250 µM			
CC(C)(C)c1nc2c(o1)C(=Nc1ccccc1)c1ccccc1C2=O	85.8 µM	11.3	51.9 µM	38.1	9.66 µM	50.1														
CCc1nc2c(O)ccc(O)c2nc1C	34 µM	37	34.3 µM	9.35	39.4 µM	15.8														
CC(C)(C)C1CC[C@H]2c3c([nH]c4ccc(Br)cc34)[C@H]3C(=O)N(c4ccccc4)C(=O)[C@H]3[C@H]2C1 (some centres not stated)	> 100 µM	22.4	19.5 µM	> 100	38.2 µM	31.3														
COC(=O)OCC1OC(N2C(=O)NC(=O)C(I)C2N=[N+]=[N-])CC1OC(=O)OC (configuration not stated)	> 100 µM	> 100	> 100 µM	> 100	> 100 µM	> 100														
COc1cc2c(cc1O)[C@H](C)C(c1ccc(Cl)cc1)O2 (some centres not stated)	66.2 µM	34.5	50.5 µM	79.6	29.4 µM	34.7														
Cc1c(Cl)cccc1NC(=O)CC1Sc2ccccc2NC1=O (configuration not stated)	> 85.9 µM and 55 µM	> 100	> 100 µM and 57.5 µM	> 100	68.9 µM and 50.2 µM	> 100		10.6 µM and 26 µM	44.5 µM and 21 µM				32.1 µM		9.79 µM		8.28 µM			
COC1/C=C/O[C@@]2(C)Oc3c(C)c(O)c4c(O)c(cc(O)c4c3C2=O)NC(=O)/C(C)=C\C=C\[C@H](C)C(O)[C@@H](C)[C@@H](O)[C@@H](C)[C@H](OC(C)=O)[C@@H]1C (some centres not stated)	30.5 µM	32.7		30.4	29.3 µM								27.2 µM and 56.2 µM	33.5	31.6 µM and 40.4 µM	59	39.9 µM and 27.8 µM	14.2	17.2	19.2
